The values that follow come from US20230310624A1, “AFFIBODY-CYTOTOXIN CONJUGATE FOR ACTIVE TARGETED THERAPY OF TUMORS, NANOPARTICLE THEREOF, PREPARATION METHOD THEREOF AND APPLICATION THEREOF” (priority 2020, published 2023).

Data set [1] deals with SKOV-3 tumor. Nature of the data set: therapeutic effects on tumors of SKOV-3 tumor-bearing nude mice. The class given is in vivo. How it is done: A cell suspension of SKOV-3 cells in logarithmic growth phase is prepared at a concentration of 4.0><10^6 cells/mL, and inoculated subcutaneously into the right anterior axillary of nude mice, 200 μL per mouse; when the volume of tumor is around 100 mm^3, the mice are randomly selected into 4 groups, 5 in each group, which are respectively a PBS control group, a MMAE 0.6 mg/kg group, a ZHER2:342-MMAE nanoparticle group (the content of MMAE is 0.4 mg/kg), and a ZHER2:342-MMAE nanoparticle group (the content of MMAE is 0.6 mg/kg), wherein 200 μl PBS is injected for the PBS group, 0.6 mg/kg of MMAE is injected for the MMAE 0.6 mg/kg group, ZHER2:342-MMAE (containing 0.4 mg/kg MMAE) is injected for the ZHER2:342-MMAE group (containing 0.4 mg/kg MMAE), and ZHER2:342-MMAE (the content of MMAE is 0.6 mg/kg) is injected for the ZHER2:342-MMAE group (the content of MMAE is 0.6 mg/kg), once every 3 days. After each administration, the survival of tumor-bearing nude mice is observed, and the body weight and tumor size of the mice are measured and photographed for preservation.

For data set [2] the following is noted: in rats; cited from earlier work.
The subject of data set [3] is SKOV-3 tumor. The experiment in a line: long-term cycle imaging in SKOV-3 tumor-bearing nude mice. The class given is in vivo. How it is done: A cell suspension of SKOV-3 cells in logarithmic growth phase is prepared at a concentration of 4.0×10^6 cells/mL, and inoculated subcutaneously into the right anterior axillary of nude mice, 200 μL per mouse; when the volume of tumor is around 500 mm^3, two mice are randomly selected as a control group and an experimental group. […] After 4 h and 12 h of injection, ZKKS-Mulaurora imaging system is used to take pictures and analyze the fluorescence intensity of the whole body of the mice.

Where a SMILES comes first, the peptide text is derived from it. [ ]: non-standard residue; d: D form. The star is where a group is joined. Dolaproine = CO[C@@H]([C@@H]1CCCN1)[C@@H](C)C(=O)O; Dil = CC[C@H](C)[C@H](NC)[C@@H](CC(=O)O)OC; X1 = C[C@@H](N*)[C@@H](O)c1ccccc1; NMeV = CN[C@H](C(=O)O)C(C)C

Turning to `CC[C@H](C)[C@@H]([C@@H](CC(=O)N1CCC[C@H]1[C@H](OC)[C@@H](C)C(=O)N[C@H](C)[C@@H](O)c1ccccc1)OC)N(C)C(=O)[C@@H](NC(=O)[C@@H](NC)C(C)C)C(C)C` [MMAE, monomethyl auristatin E] (H-[NMeV]V[Dil][Dolaproine]-X1), the “body weight of the mice” value in data set [1] (MMAE 0.6 mg/kg, after administration) is recorded as “drops sharply”. Further, in data set [1] (MMAE (content) 0.6 mg/kg, once every 3 days), the “survival of tumor-bearing nude mice” value is reported as “all died”. Take `CC(=O)O[C@H]1C(=O)[C@@]2(C)[C@H]([C@H](OC(=O)c3ccccc3)[C@]3(O)C[C@H](OC(=O)[C@H](O)[C@@H](NC(=O)c4ccccc4)c4ccccc4)C(C)=C1C3(C)C)[C@]1(OC(C)=O)CO[C@@H]1C[C@@H]2O` [paclitaxel]: the blood half-life period in data set [2] is on record as 1.1 h.

Turning to cyanine dye 5.5 [Cy5.5], the whole-body fluorescence distribution result in data set [3] (after 4 hours of injection) is listed as “no obvious presence in the mouse body”; in data set [3] (after 12 hours), “basically completely metabolized”.
